2 compounds from patent US20250235500A1, “NEW POLYPEPTIDE FOR PROMOTING TISSUE REPAIR, AND USE THEREOF” (Jinan University, priority 2021, published 2025) can be followed below.

Bridge positions count the residues as written; N and C are the ends. Peptide text beside a SMILES is read from it.

The subject of data set [1] is skin of subjects. As to the kind of experiment: Skin safety evaluation, closed patch test. The settings on record: TRF7 2 mg/mL, 24 h patch, 20 subjects, observed at 0.5, 6, 12, 24 and 48 h. It is filed as in vivo, human. The method, then:
Subject population: A total of 20 subjects, comprising 10 females and 10 males aged 18-55, were selected. All subjects had healthy skin without any history of skin diseases or allergies, meeting the eligibility criteria for participation.
Test method: Qualified patch testers were selected, and a closed patch test method was adopted. Approximately 0.020-0.025 mL of the polypeptide TRF7 (2 mg/mL) was applied to the patch testers, which were then affixed to the subjects' backs using specialized adhesive tape. […] The results of the skin reactions were recorded according to the grading standards stipulated in the Hygienic Standard for Cosmetics.

In data set [2] the test system is stress-induced gastric ulcer in rats. Description: Protective effect on stress-induced gastric ulcer in rats (restraint water-immersion). The note with it: sucralfate 1 g/kg intragastric, 7 days; Guth standard; model group 75.1 ± 13.8. It is filed as in vivo, SD rats. The procedure:
Test Method: 20 male SD rats weighing 180-210 g (purchased from Guangdong Medical Experimental Animal Center) were randomly divided into five groups: a blank group, a model group, a sucralfate group (1 g/kg, a positive drug group), a low-dose TRF7 group (12.5 mg/kg), and a high-dose TRF7 group (50.0 mg/kg). The treatment groups were subjected to intragastric administration for 7 consecutive days. 24 h before modeling, the rats were subjected to […] but fed with water. […] The rats were cut open along greater curvatures of the stomach, rinsed with the normal saline, and then unfolded, damage to gastric mucosa was observed, and a gastric ulcer index was calculated. Calculating the ulcer index (UI) according to a Guth standard: punctate hemorrhage was scored as 1 point, linear hemorrhage with a length of <1 mm was scored as 2 points, linear hemorrhage with a length of 1-2 mm was scored as 3 points, linear hemorrhage with a length of 2-4 mm was scored as 4 points, linear hemorrhage with a length of >4 mm was scored as 5 points, and linear hemorrhage with a width of >1 mm was scored double points.

`CC(C)C[C@H](NC(=O)[C@@H]1CCCN1C(=O)[C@H](C)NC(=O)[C@H](Cc1ccc(O)cc1)NC(=O)[C@H](CO)NC(=O)CNC(=O)[C@@H]1CSSC[C@H](NC(=O)[C@H](C)N)C(=O)N2CCC[C@H]2C(=O)N[C@@H](CC(N)=O)C(=O)N[C@@H](Cc2ccc(O)cc2)C(=O)N2CCC[C@H]2C(=O)N[C@@H](Cc2ccc(O)cc2)C(=O)N1)C(=O)NCC(=O)N[C@@H](Cc1ccc(O)cc1)C(=O)N[C@@H](Cc1c[nH]cn1)C(=O)N[C@H](C(=O)N[C@@H](CCCNC(=N)N)C(=O)N[C@@H](CCC(=O)O)C(=O)N[C@@H](Cc1ccc(O)cc1)C(=O)N1CCC[C@H]1C(=O)N[C@@H](C)C(=O)NCC(=O)N[C@H](C(=O)N[C@@H](CO)C(=O)N[C@@H](C)C(=O)N[C@@H](C)C(=O)O)C(C)C)C(C)C` [TRF7] (H-ACPNYPYCGSYAPLGYHVREYPAGVSAA-OH; disulfide 2-8): in data set [1], the “skin reactions in closed patch test” value is reported as “no adverse skin reactions observed”.

As for sucralfate, in data set [2], the Ulcer inde was found to be 35.5 ± 8.7.
